In patent US10206394B2, “Herbicidal compounds” (Syngenta Participations AG, priority 2014, dated 2019):
Read-outs that look alike come from different tables or passages of the source.

What was measured:
Experiment in all cases: Glasshouse assay for herbicidal activity (pre- and post-emergence), percentage phytotoxicity
Assay type in all cases: in vivo
[1] = system: Alopecurus myosuroides (ALOMY); settings: Alopecurus myosuroides
In short: (§1)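 Pot-grown plants treated one day after sowing (pre-emergence) or at about 12 days (post-emergence); glasshouse at 24/18° C (warm) or 20/16° C (cool species) day/night, 16 h light, 65% humidity. Visual % phytotoxicity (0 = none, 100 = total damage) scored at 15 DAA post or 20 DAA pre.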

Avena fatua (AVEFA) = settings: Avena fatua
In short: as §1

[2] = system: Echinochloa crus-galli (ECHCG); settings: Echinochloa crus-galli
In short: as §1

Lolium perenne (LOLPE) = settings: Lolium perenne
In short: as §1

[3] = post-emergence, 360 h, POST-emergence, rate 250 g/ha, visual score 15 DAA (100%=total damage, 0%=no damage), read-out: Post-emergence herbicidal activity (percentage phytotoxicity) ALOMY POST
[4] = pre-emergence, 480 h, PRE-emergence, rate 250 g/ha, visual score 20 DAA (100%=total damage, 0%=no damage), read-out: Pre-emergence herbicidal activity (percentage phytotoxicity) ALOMY PRE
[5] = post-emergence, 360 h, POST-emergence, rate 250 g/ha, visual score 15 DAA (100%=total damage, 0%=no damage), read-out: Post-emergence herbicidal activity (percentage phytotoxicity) AVEFA POST
[6] = pre-emergence, 480 h, PRE-emergence, rate 250 g/ha, visual score 20 DAA (100%=total damage, 0%=no damage), read-out: Pre-emergence herbicidal activity (percentage phytotoxicity) AVEFA PRE
[7] = post-emergence, 360 h, POST-emergence, rate 250 g/ha, visual score 15 DAA (100%=total damage, 0%=no damage), read-out: Post-emergence herbicidal activity (percentage phytotoxicity) ECHCG POST
[8] = pre-emergence, 480 h, PRE-emergence, rate 250 g/ha, visual score 20 DAA (100%=total damage, 0%=no damage), read-out: Pre-emergence herbicidal activity (percentage phytotoxicity) ECHCG PRE
[9] = post-emergence, 360 h, POST-emergence, rate 250 g/ha, visual score 15 DAA (100%=total damage, 0%=no damage), read-out: Post-emergence herbicidal activity (percentage phytotoxicity) LOLPE POST
[10] = pre-emergence, 480 h, PRE-emergence, rate 250 g/ha, visual score 20 DAA (100%=total damage, 0%=no damage), read-out: Pre-emergence herbicidal activity (percentage phytotoxicity) LOLPE PRE
[11] = post-emergence, 360 h, Rate 250 g/ha, post-emergence, assessed visually 15 DAA, 100%=total damage, 0%=no damage, read-out: Post-emergence herbicidal activity (percentage phytotoxicity) ALOMY POST
[12] = pre-emergence, 480 h, Rate 250 g/ha, pre-emergence, assessed visually 20 DAA, 100%=total damage, 0%=no damage, read-out: Pre-emergence herbicidal activity (percentage phytotoxicity) ALOMY PRE
[13] = post-emergence, 360 h, Rate 250 g/ha, post-emergence, assessed visually 15 DAA, 100%=total damage, 0%=no damage, read-out: Post-emergence herbicidal activity (percentage phytotoxicity) AVEFA POST
[14] = pre-emergence, 480 h, Rate 250 g/ha, pre-emergence, assessed visually 20 DAA, 100%=total damage, 0%=no damage, read-out: Pre-emergence herbicidal activity (percentage phytotoxicity) AVEFA PRE
[15] = post-emergence, 360 h, Rate 250 g/ha, post-emergence, assessed visually 15 DAA, 100%=total damage, 0%=no damage, read-out: Post-emergence herbicidal activity (percentage phytotoxicity) ECHCG POST
[16] = pre-emergence, 480 h, Rate 250 g/ha, pre-emergence, assessed visually 20 DAA, 100%=total damage, 0%=no damage, read-out: Pre-emergence herbicidal activity (percentage phytotoxicity) ECHCG PRE
[17] = post-emergence, 360 h, Rate 250 g/ha, post-emergence, assessed visually 15 DAA, 100%=total damage, 0%=no damage, read-out: Post-emergence herbicidal activity (percentage phytotoxicity) LOLPE POST
[18] = pre-emergence, 480 h, Rate 250 g/ha, pre-emergence, assessed visually 20 DAA, 100%=total damage, 0%=no damage, read-out: Pre-emergence herbicidal activity (percentage phytotoxicity) LOLPE PRE
[19] = post-emergence, 360 h, 250 g/ha, post-emergence, 15 DAA, visual assessment (100%=total damage, 0%=no damage), read-out: Post-emergence herbicidal activity (percentage phytotoxicity) ALOMY POST
[20] = pre-emergence, 480 h, 250 g/ha, pre-emergence, 20 DAA, visual assessment (100%=total damage, 0%=no damage), read-out: Pre-emergence herbicidal activity (percentage phytotoxicity) ALOMY PRE
[21] = post-emergence, 360 h, 250 g/ha, post-emergence, 15 DAA, visual assessment (100%=total damage, 0%=no damage), read-out: Post-emergence herbicidal activity (percentage phytotoxicity) AVEFA POST
[22] = pre-emergence, 480 h, 250 g/ha, pre-emergence, 20 DAA, visual assessment (100%=total damage, 0%=no damage), read-out: Pre-emergence herbicidal activity (percentage phytotoxicity) AVEFA PRE
[23] = post-emergence, 360 h, 250 g/ha, post-emergence, 15 DAA, visual assessment (100%=total damage, 0%=no damage), read-out: Post-emergence herbicidal activity (percentage phytotoxicity) ECHCG POST
[24] = pre-emergence, 480 h, 250 g/ha, pre-emergence, 20 DAA, visual assessment (100%=total damage, 0%=no damage), read-out: Pre-emergence herbicidal activity (percentage phytotoxicity) ECHCG PRE
[25] = post-emergence, 360 h, 250 g/ha, post-emergence, 15 DAA, visual assessment (100%=total damage, 0%=no damage), read-out: Post-emergence herbicidal activity (percentage phytotoxicity) LOLPE POST
[26] = pre-emergence, 480 h, 250 g/ha, pre-emergence, 20 DAA, visual assessment (100%=total damage, 0%=no damage), read-out: Pre-emergence herbicidal activity (percentage phytotoxicity) LOLPE PRE

Row | SMILES | pest or weed control at 250 g/ha [1, 3] | pest or weed control at 250 g/ha [1, 4] | pest or weed control at 250 g/ha (Avena fatua (AVEFA); [5]) | pest or weed control at 250 g/ha (Avena fatua (AVEFA); [6]) | pest or weed control at 250 g/ha [2, 7] | pest or weed control at 250 g/ha [2, 8] | pest or weed control at 250 g/ha (Lolium perenne (LOLPE); [9]) | pest or weed control at 250 g/ha (Lolium perenne (LOLPE); [10]) | also measured
1 | C/C=C/c1cc(C)c(C2C(=O)CC(CC(N)=O)C2=O)c(C)c1 (stereo not drawn) [Compound B175] | 90% | 100% | 100% | 90% | 90% | 100% | 80% | 100% | 
2 | Cc1cc(C)c(C2C(=O)CC(CC(=O)N3CCC(C)CC3)C2=O)c(C)c1 (stereo not drawn) [Compound A172] |  |  |  |  |  |  |  |  | pest or weed control at 250 g/ha ([1]; post-emergence, 360 h, post-emergence, 250 g/ha, 15 DAA, visual score (100%=total damage; 0%=no damage), read-out: ALOMY POST herbicidal activity (percentage phytotoxicity)): 80%; pest or weed control at 250 g/ha ([1]; pre-emergence, 480 h, pre-emergence, 250 g/ha, 20 DAA, visual score (100%=total damage; 0%=no damage), read-out: ALOMY PRE herbicidal activity (percentage phytotoxicity)): 80%; pest or weed control at 250 g/ha (Avena fatua (AVEFA); post-emergence, 360 h, post-emergence, 250 g/ha, 15 DAA, visual score (100%=total damage; 0%=no damage), read-out: AVEFA POST herbicidal activity (percentage phytotoxicity)): 70%; pest or weed control at 250 g/ha (Avena fatua (AVEFA); pre-emergence, 480 h, pre-emergence, 250 g/ha, 20 DAA, visual score (100%=total damage; 0%=no damage), read-out: AVEFA PRE herbicidal activity (percentage phytotoxicity)): 40%; pest or weed control at 250 g/ha ([2]; post-emergence, 360 h, post-emergence, 250 g/ha, 15 DAA, visual score (100%=total damage; 0%=no damage), read-out: ECHCG POST herbicidal activity (percentage phytotoxicity)): 70%; pest or weed control at 250 g/ha ([2]; pre-emergence, 480 h, pre-emergence, 250 g/ha, 20 DAA, visual score (100%=total damage; 0%=no damage), read-out: ECHCG PRE herbicidal activity (percentage phytotoxicity)): 80%; pest or weed control at 250 g/ha (Lolium perenne (LOLPE); post-emergence, 360 h, post-emergence, 250 g/ha, 15 DAA, visual score (100%=total damage; 0%=no damage), read-out: LOLPE POST herbicidal activity (percentage phytotoxicity)): 60%; pest or weed control at 250 g/ha (Lolium perenne (LOLPE); pre-emergence, 480 h, pre-emergence, 250 g/ha, 20 DAA, visual score (100%=total damage; 0%=no damage), read-out: LOLPE PRE herbicidal activity (percentage phytotoxicity)): 90%
3 | C=CCCNC(=O)CC1CC(=O)C(c2c(C)cc(C#CC)cc2C)C1=O (stereo not drawn) [Compound A57] |  |  |  |  |  |  |  |  | pest or weed control at 250 g/ha [1, 11]: 100%; pest or weed control at 250 g/ha [1, 12]: 100%; pest or weed control at 250 g/ha (Avena fatua (AVEFA); [13]): 100%; pest or weed control at 250 g/ha (Avena fatua (AVEFA); [14]): 90%; pest or weed control at 250 g/ha [2, 15]: 100%; pest or weed control at 250 g/ha [2, 16]: 100%; pest or weed control at 250 g/ha (Lolium perenne (LOLPE); [17]): 100%; pest or weed control at 250 g/ha (Lolium perenne (LOLPE); [18]): 100%
4 | Cc1cc(-c2ncc(Cl)cc2F)cc(C)c1C1C(=O)CC(CC(=O)N2CCOCC2)C1=O (stereo not drawn) [Compound B93] |  |  |  |  |  |  |  |  | pest or weed control at 250 g/ha [1, 19]: 100%; pest or weed control at 250 g/ha [1, 20]: 80%; pest or weed control at 250 g/ha (Avena fatua (AVEFA); [21]): 100%; pest or weed control at 250 g/ha (Avena fatua (AVEFA); [22]): 70%; pest or weed control at 250 g/ha [2, 23]: 100%; pest or weed control at 250 g/ha [2, 24]: 100%; pest or weed control at 250 g/ha (Lolium perenne (LOLPE); [25]): 100%; pest or weed control at 250 g/ha (Lolium perenne (LOLPE); [26]): 90%
5 | Cc1cc(-c2ccc(C#N)cn2)cc(C)c1C1C(=O)CC(CC(=O)NCc2cccc(Cl)c2)C1=O (stereo not drawn) [Compound B295] | 90% | 80% | 100% | 60% | 100% | 90% | 90% | 90% | 
6 | CC#Cc1cc(C)c(C2C(=O)CC(CC(=O)NCc3ccsc3)C2=O)c(C)c1 (stereo not drawn) [Compound A55] |  |  |  |  |  |  |  |  | pest or weed control at 250 g/ha [1, 11]: 90%; pest or weed control at 250 g/ha [1, 12]: 90%; pest or weed control at 250 g/ha (Avena fatua (AVEFA); [13]): 100%; pest or weed control at 250 g/ha (Avena fatua (AVEFA); [14]): 80%; pest or weed control at 250 g/ha [2, 15]: 100%; pest or weed control at 250 g/ha [2, 16]: 100%; pest or weed control at 250 g/ha (Lolium perenne (LOLPE); [17]): 90%; pest or weed control at 250 g/ha (Lolium perenne (LOLPE); [18]): 90%
7 | Cc1cc(C)c(C2C(=O)CC(CC(=O)NCc3ccccc3Br)C2=O)c(C)c1 (stereo not drawn) [Compound B22] |  |  |  |  |  |  |  |  | pest or weed control at 250 g/ha [1, 19]: 30%; pest or weed control at 250 g/ha [1, 20]: 30%; pest or weed control at 250 g/ha (Avena fatua (AVEFA); [21]): 20%; pest or weed control at 250 g/ha (Avena fatua (AVEFA); [22]): 100%; pest or weed control at 250 g/ha [2, 23]: 80%; pest or weed control at 250 g/ha [2, 24]: 90%; pest or weed control at 250 g/ha (Lolium perenne (LOLPE); [25]): 80%; pest or weed control at 250 g/ha (Lolium perenne (LOLPE); [26]): 90%
8 | CCc1cc(OCC(F)(F)F)cc(C)c1C1C(=O)CC(CC(=O)NCC2CC2)C1=O (stereo not drawn) [Compound B219] | 100% | 100% | 100% | 90% | 100% | 90% | 100% | 100% | 
9 | Cc1cc(C)c(C2C(=O)CC(CC(=O)NCc3cccc([N+](=O)[O-])c3)C2=O)c(C)c1 (stereo not drawn) [Compound B20] |  |  |  |  |  |  |  |  | pest or weed control at 250 g/ha [1, 19]: 70%; pest or weed control at 250 g/ha [1, 20]: 80%; pest or weed control at 250 g/ha (Avena fatua (AVEFA); [21]): 80%; pest or weed control at 250 g/ha (Avena fatua (AVEFA); [22]): 90%; pest or weed control at 250 g/ha [2, 23]: 90%; pest or weed control at 250 g/ha [2, 24]: 90%; pest or weed control at 250 g/ha (Lolium perenne (LOLPE); [25]): 40%; pest or weed control at 250 g/ha (Lolium perenne (LOLPE); [26]): 70%
10 | CCc1cc(C)cc(C)c1C1C(=O)CC(CC(N)=O)C1=O (stereo not drawn) [Compound B171] | 100% | 100% | 100% | 100% | 100% | 100% | 90% | 100% | 
11 | CC#Cc1cc(C)c(C2C(=O)CC(CC(N)=O)C2=O)c(C)c1 (stereo not drawn) [Compound B168] | 100% | 100% | 100% | 100% | 100% | 100% | 100% | 100% | 
12 | C/C=C/c1cc(C)c(C2C(=O)CC(CC(=O)N(C)CC)C2=O)c(C)c1 (stereo not drawn) [Compound B248] | 100% | 50% | 100% | 50% | 100% | 60% | 100% | 80% | 
